Source: the supplement of paper PMC11451515

Tested on: SEM cells
Test: cell viability relative to DMSO control; higher = less cytotoxic
Conditions: 48 h
In short: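 In 1536-well plates, 5 μl of leukemia cells were seeded per well: 500 cells/well for NOMO1 or SEM and 1000 cells/well for P12-Ichikawa. Each line had first been adapted for at least four passages in each medium. Library compounds in DMSO were pin-dosed at 11 threefold concentrations between 47 μM and 0.79 nM, and CellTiter-Glo One luminescence was read after 48 h at 37°C. Viability is a per-plate percentage relative to DMSO wells, with cell-free wells as background.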

[1] = RPMI 5 mM glucose + 10% FBS, 0.000781 µM
[2] = RPMI 5 mM glucose + 10% FBS, 0.00234 µM
[3] = RPMI 5 mM glucose + 10% FBS, 0.00702 µM
[4] = RPMI 5 mM glucose + 10% FBS, 0.0211 µM
[5] = RPMI 5 mM glucose + 10% FBS, 0.0632 µM
[6] = RPMI 5 mM glucose + 10% FBS, 0.19 µM
[7] = RPMI 5 mM glucose + 10% FBS, 0.569 µM
[8] = RPMI 5 mM glucose + 10% FBS, 1.71 µM
[9] = RPMI 5 mM glucose + 10% FBS, 5.12 µM
[10] = RPMI 5 mM glucose + 10% FBS, 15.4 µM
[11] = RPMI 5 mM glucose + 10% FBS, 46.1 µM

Compound | cell viability (HPLM + 10% dialyzed FBS, 0.000781 µM) [%] | cell viability (HPLM + 10% dialyzed FBS, 0.00234 µM) [%] | cell viability (HPLM + 10% dialyzed FBS, 0.00702 µM) [%] | cell viability (HPLM + 10% dialyzed FBS, 0.0211 µM) [%] | cell viability (HPLM + 10% dialyzed FBS, 0.0632 µM) [%] | cell viability (HPLM + 10% dialyzed FBS, 0.19 µM) [%] | cell viability (HPLM + 10% dialyzed FBS, 0.569 µM) [%] | cell viability (HPLM + 10% dialyzed FBS, 1.71 µM) [%] | cell viability (HPLM + 10% dialyzed FBS, 5.12 µM) [%] | cell viability (HPLM + 10% dialyzed FBS, 15.4 µM) [%] | cell viability (HPLM + 10% dialyzed FBS, 46.1 µM) [%] | cell viability [1] [%] | cell viability [2] [%] | cell viability [3] [%] | cell viability [4] [%] | cell viability [5] [%] | cell viability [6] [%] | cell viability [7] [%] | cell viability [8] [%] | cell viability [9] [%] | cell viability [10] [%] | cell viability [11] [%] | cell viability (RPMI 5 mM glucose + 10% dialyzed FBS, 0.000781 µM) [%] | cell viability (RPMI 5 mM glucose + 10% dialyzed FBS, 0.00234 µM) [%] | cell viability (RPMI 5 mM glucose + 10% dialyzed FBS, 0.00702 µM) [%] | cell viability (RPMI 5 mM glucose + 10% dialyzed FBS, 0.0211 µM) [%] | cell viability (RPMI 5 mM glucose + 10% dialyzed FBS, 0.0632 µM) [%] | cell viability (RPMI 5 mM glucose + 10% dialyzed FBS, 0.19 µM) [%] | cell viability (RPMI 5 mM glucose + 10% dialyzed FBS, 0.569 µM) [%] | cell viability (RPMI 5 mM glucose + 10% dialyzed FBS, 1.71 µM) [%] | cell viability (RPMI 5 mM glucose + 10% dialyzed FBS, 5.12 µM) [%] | cell viability (RPMI 5 mM glucose + 10% dialyzed FBS, 15.4 µM) [%] | cell viability (RPMI 5 mM glucose + 10% dialyzed FBS, 46.1 µM) [%]
CCOC(=O)\C1=C(/C)N\C2=C(C1C3=CC=C(C=C3)C4=CC=CC=C4)\C(=O)CC(C)(C)C2 (centres undefined) | 107 | 104 | 101 | 105 | 104 | 113 | 103 | 102 | 105 | 92 | 60.4 | 101 | 122 | 134 | 114 | 144 | 108 | 110 | 112 | 108 | 96.1 | 58.4 | 89.4 | 116 | 111 | 98.3 | 104 | 89.4 | 97.5 | 103 | 89.8 | 81.1 | 57.6
C=CC(=O)N1CCC[C@@H](n2nc(-c3ccc(Oc4ccccc4)cc3)c3c(N)ncnc32)C1 |  |  |  |  |  |  |  |  |  |  |  | 95.1 | 127 | 112 | 99 | 128 | 110 | 102 | 99.7 | 103 | 79.9 | 33.5 |  |  |  |  |  |  |  |  |  |  | 
